Assay results from ChEMBL document CHEMBL5543142, “Discovery of YFJ-36: Design, Synthesis, and Antibacterial Activities of Catechol-Conjugated β-Lactams against Gram-Negative Bacteria” (J Med Chem, 2024).
In brackets after ≈: the same amount, converted by molar mass.

What was measured:
[1] = system: Pseudomonas aeruginosa; assay: Antibacterial activity against Pseudomonas aeruginosa ATCC 27853 assessed as inhibition of bacterial growth incubated for 18 to 20 hrs by two fold serial dilution assay; format: functional; details: time 18-20 hrs
[2] = system: Escherichia coli; assay: Antibacterial activity against ESBL-producing multidrug-resistant Escherichia coli clinical isolate 14-1 assessed as inhibition of bacterial growth incubated for 18 to 20 hrs by two fold serial dilution assay; format: functional; details: time 18-20 hrs
[3] = system: Escherichia coli; assay: Antibacterial activity against ESBL-producing multidrug-resistant Escherichia coli clinical isolate 14-2 assessed as inhibition of bacterial growth incubated for 18 to 20 hrs by two fold serial dilution assay; format: functional; details: time 18-20 hrs
[4] = system: Escherichia coli; assay: Antibacterial activity against ESBL-producing multidrug-resistant Escherichia coli clinical isolate 14-4 assessed as inhibition of bacterial growth incubated for 18 to 20 hrs by two fold serial dilution assay; format: functional; details: time 18-20 hrs
[5] = system: Acinetobacter baumannii; assay: Antibacterial activity against OXA-23 producing multidrug-resistant Acinetobacter baumannii clinical isolate 15-1 assessed as inhibition of bacterial growth incubated for 18 to 20 hrs by two fold serial dilution assay; format: functional; details: time 18-20 hrs
[6] = system: Acinetobacter baumannii; assay: Antibacterial activity against OXA-23 producing multidrug-resistant Acinetobacter baumannii clinical isolate 15-2 assessed as inhibition of bacterial growth incubated for 18 to 20 hrs by two fold serial dilution assay; format: functional; details: time 18-20 hrs
[7] = system: Acinetobacter baumannii; assay: Antibacterial activity against OXA-23 producing multidrug-resistant Acinetobacter baumannii clinical isolate 15-3 assessed as inhibition of bacterial growth incubated for 18 to 20 hrs by two fold serial dilution assay; format: functional; details: time 18-20 hrs
[8] = system: Acinetobacter baumannii; assay: Antibacterial activity against OXA-23 producing multidrug-resistant Acinetobacter baumannii clinical isolate 15-4 assessed as inhibition of bacterial growth incubated for 18 to 20 hrs by two fold serial dilution assay; format: functional; details: time 18-20 hrs
[9] = system: Acinetobacter baumannii; assay: Antibacterial activity against OXA-23 producing multidrug-resistant Acinetobacter baumannii clinical isolate 15-5 assessed as inhibition of bacterial growth incubated for 18 to 20 hrs by two fold serial dilution assay; format: functional; details: time 18-20 hrs
[10] = system: Klebsiella pneumoniae; assay: Antibacterial activity against KPC-2 producing multidrug-resistant Klebsiella pneumoniae clinical isolate 15-1 assessed as inhibition of bacterial growth incubated for 18 to 20 hrs by two fold serial dilution assay; format: functional; details: time 18-20 hrs
[11] = system: Klebsiella pneumoniae; assay: Antibacterial activity against KPC-2 producing multidrug-resistant Klebsiella pneumoniae clinical isolate 15-2 assessed as inhibition of bacterial growth incubated for 18 to 20 hrs by two fold serial dilution assay; format: functional; details: time 18-20 hrs
[12] = system: Klebsiella pneumoniae; assay: Antibacterial activity against KPC-2 producing multidrug-resistant Klebsiella pneumoniae clinical isolate 15-5 assessed as inhibition of bacterial growth incubated for 18 to 20 hrs by two fold serial dilution assay; format: functional; details: time 18-20 hrs
[13] = system: Pseudomonas aeruginosa; assay: Antibacterial activity against IMP-4 producing multidrug-resistant Pseudomonas aeruginosa clinical isolate 15-1 assessed as inhibition of bacterial growth incubated for 18 to 20 hrs by two fold serial dilution assay; format: functional; details: time 18-20 hrs
[14] = system: Pseudomonas aeruginosa; assay: Antibacterial activity against IMP-4 producing multidrug-resistant Pseudomonas aeruginosa clinical isolate 15-4 assessed as inhibition of bacterial growth incubated for 18 to 20 hrs by two fold serial dilution assay; format: functional; details: time 18-20 hrs
[15] = system: Pseudomonas aeruginosa; assay: Antibacterial activity against IMP-4 producing multidrug-resistant Pseudomonas aeruginosa clinical isolate 15-5 assessed as inhibition of bacterial growth incubated for 18 to 20 hrs by two fold serial dilution assay; format: functional; details: time 18-20 hrs
[16] = system: Escherichia coli; assay: Antibacterial activity against Escherichia coli ATCC35218 assessed as inhibition of bacterial growth incubated for 18 to 20 hrs by two fold serial dilution assay; format: functional; details: time 18-20 hrs
[17] = system: Pseudomonas aeruginosa; assay: Antibacterial activity against IMP-4 producing multidrug-resistant Pseudomonas aeruginosa clinical isolate 17-13 assessed as inhibition of bacterial growth incubated for 18 to 20 hrs by two fold serial dilution assay; format: functional; details: time 18-20 hrs
[18] = system: Pseudomonas aeruginosa; assay: Antibacterial activity against IMP-4 producing multidrug-resistant Pseudomonas aeruginosa clinical isolate 17-1 assessed as inhibition of bacterial growth incubated for 18 to 20 hrs by two fold serial dilution assay; format: functional; details: time 18-20 hrs
[19] = system: Pseudomonas aeruginosa; assay: Antibacterial activity against IMP-4 producing multidrug-resistant Pseudomonas aeruginosa clinical isolate 19-17 assessed as inhibition of bacterial growth incubated for 18 to 20 hrs by two fold serial dilution assay; format: functional; details: time 18-20 hrs
[20] = system: Acinetobacter baumannii; assay: Antibacterial activity against OXA-23 producing multidrug-resistant Acinetobacter baumannii clinical isolate 17-2 assessed as inhibition of bacterial growth incubated for 18 to 20 hrs by two fold serial dilution assay; format: functional; details: time 18-20 hrs
[21] = system: Acinetobacter baumannii; assay: Antibacterial activity against OXA-23 producing multidrug-resistant Acinetobacter baumannii clinical isolate 17-3 assessed as inhibition of bacterial growth incubated for 18 to 20 hrs by two fold serial dilution assay; format: functional; details: time 18-20 hrs
[22] = system: Pseudomonas aeruginosa; assay: Antibacterial activity against IMP-4 producing multidrug-resistant Pseudomonas aeruginosa clinical isolate 19-5 assessed as inhibition of bacterial growth incubated for 18 to 20 hrs by two fold serial dilution assay; format: functional; details: time 18-20 hrs
[23] = system: Pseudomonas aeruginosa; assay: Antibacterial activity against IMP-4 producing multidrug-resistant Pseudomonas aeruginosa clinical isolate 19-1 assessed as inhibition of bacterial growth incubated for 18 to 20 hrs by two fold serial dilution assay; format: functional; details: time 18-20 hrs
[24] = system: Acinetobacter baumannii; assay: Antibacterial activity against OXA-23 producing multidrug-resistant Acinetobacter baumannii clinical isolate 17-5 assessed as inhibition of bacterial growth incubated for 18 to 20 hrs by two fold serial dilution assay; format: functional; details: time 18-20 hrs
[25] = system: Acinetobacter baumannii; assay: Antibacterial activity against OXA-23 producing multidrug-resistant Acinetobacter baumannii clinical isolate 17-6 assessed as inhibition of bacterial growth incubated for 18 to 20 hrs by two fold serial dilution assay; format: functional; details: time 18-20 hrs
[26] = system: Acinetobacter baumannii; assay: Antibacterial activity against OXA-23 producing multidrug-resistant Acinetobacter baumannii clinical isolate 17-7 assessed as inhibition of bacterial growth incubated for 18 to 20 hrs by two fold serial dilution assay; format: functional; details: time 18-20 hrs
[27] = system: Acinetobacter baumannii; assay: Antibacterial activity against OXA-23 producing multidrug-resistant Acinetobacter baumannii clinical isolate 17-8 assessed as inhibition of bacterial growth incubated for 18 to 20 hrs by two fold serial dilution assay; format: functional; details: time 18-20 hrs
[28] = system: Klebsiella pneumoniae; assay: Antibacterial activity against KPC-2 producing multidrug-resistant Klebsiella pneumoniae clinical isolate 15-3 assessed as inhibition of bacterial growth incubated for 18 to 20 hrs by two fold serial dilution assay; format: functional; details: time 18-20 hrs
[29] = system: Escherichia coli; assay: Antibacterial activity against Escherichia coli NCTC-13353 assessed as inhibition of bacterial growth incubated for 18 to 20 hrs in presence of CAMHB medium by two fold serial dilution assay; format: functional; details: time 18-20 hrs
[30] = system: Escherichia coli; assay: Antibacterial activity against Escherichia coli ATCC-35218 assessed as inhibition of bacterial growth incubated for 18 to 20 hrs in presence of CAMHB medium by two fold serial dilution assay; format: functional; details: time 18-20 hrs
[31] = system: Klebsiella pneumoniae; assay: Antibacterial activity against Klebsiella pneumoniae ATCC BAA-1898 assessed as inhibition of bacterial growth incubated for 18 to 20 hrs in presence of CAMHB medium by two fold serial dilution assay; format: functional; details: time 18-20 hrs
[32] = system: Escherichia coli; assay: Antibacterial activity against Escherichia coli NCTC-13353 assessed as inhibition of bacterial growth incubated for 18 to 20 hrs in presence of iron-depleted CAMHB medium by two fold serial dilution assay; format: functional; details: time 18-20 hrs
[33] = system: Escherichia coli; assay: Antibacterial activity against Escherichia coli ATCC-35218 assessed as inhibition of bacterial growth incubated for 18 to 20 hrs in presence of iron-depleted CAMHB medium by two fold serial dilution assay; format: functional; details: time 18-20 hrs
[34] = system: Klebsiella pneumoniae; assay: Antibacterial activity against Klebsiella pneumoniae ATCC BAA-1898 assessed as inhibition of bacterial growth incubated for 18 to 20 hrs in presence of iron-depleted CAMHB medium by two fold serial dilution assay; format: functional; details: time 18-20 hrs
[35] = system: Escherichia coli; assay: Antibacterial activity against Escherichia coli ATCC-35218 infected in ICR mouse assessed as inhibition of bacterial growth at iv after 1 and 5 hour of post-infection measured after 7 days; format: functional; details: ATCC-35218, 168 h, time 7 day
[36] = system: Acinetobacter baumannii; assay: Antibacterial activity against multidrug-resistant Acinetobacter baumannii BM-2023-D2-010 infected in ICR mouse assessed as inhibition of bacterial growth at iv after 1 and 5 hour of post-infection measured after 7 days; format: functional; details: BM-2023-D2-010, 168 h, time 7 day
[37] = Plasma protein binding in mouse incubated for 35 mins by LC-MS/MS analysis; format: ADME, cell-free; details: read-out: PPB (converted)
[38] = target: Voltage-gated inwardly rectifying potassium channel KCNH2 (Homo sapiens, UniProt Q12809); assay: Inhibition of hERG by whole cell Qpatch assay; format: toxicity
Sequence of Voltage-gated inwardly rectifying potassium channel KCNH2 (Q12809 whole entry): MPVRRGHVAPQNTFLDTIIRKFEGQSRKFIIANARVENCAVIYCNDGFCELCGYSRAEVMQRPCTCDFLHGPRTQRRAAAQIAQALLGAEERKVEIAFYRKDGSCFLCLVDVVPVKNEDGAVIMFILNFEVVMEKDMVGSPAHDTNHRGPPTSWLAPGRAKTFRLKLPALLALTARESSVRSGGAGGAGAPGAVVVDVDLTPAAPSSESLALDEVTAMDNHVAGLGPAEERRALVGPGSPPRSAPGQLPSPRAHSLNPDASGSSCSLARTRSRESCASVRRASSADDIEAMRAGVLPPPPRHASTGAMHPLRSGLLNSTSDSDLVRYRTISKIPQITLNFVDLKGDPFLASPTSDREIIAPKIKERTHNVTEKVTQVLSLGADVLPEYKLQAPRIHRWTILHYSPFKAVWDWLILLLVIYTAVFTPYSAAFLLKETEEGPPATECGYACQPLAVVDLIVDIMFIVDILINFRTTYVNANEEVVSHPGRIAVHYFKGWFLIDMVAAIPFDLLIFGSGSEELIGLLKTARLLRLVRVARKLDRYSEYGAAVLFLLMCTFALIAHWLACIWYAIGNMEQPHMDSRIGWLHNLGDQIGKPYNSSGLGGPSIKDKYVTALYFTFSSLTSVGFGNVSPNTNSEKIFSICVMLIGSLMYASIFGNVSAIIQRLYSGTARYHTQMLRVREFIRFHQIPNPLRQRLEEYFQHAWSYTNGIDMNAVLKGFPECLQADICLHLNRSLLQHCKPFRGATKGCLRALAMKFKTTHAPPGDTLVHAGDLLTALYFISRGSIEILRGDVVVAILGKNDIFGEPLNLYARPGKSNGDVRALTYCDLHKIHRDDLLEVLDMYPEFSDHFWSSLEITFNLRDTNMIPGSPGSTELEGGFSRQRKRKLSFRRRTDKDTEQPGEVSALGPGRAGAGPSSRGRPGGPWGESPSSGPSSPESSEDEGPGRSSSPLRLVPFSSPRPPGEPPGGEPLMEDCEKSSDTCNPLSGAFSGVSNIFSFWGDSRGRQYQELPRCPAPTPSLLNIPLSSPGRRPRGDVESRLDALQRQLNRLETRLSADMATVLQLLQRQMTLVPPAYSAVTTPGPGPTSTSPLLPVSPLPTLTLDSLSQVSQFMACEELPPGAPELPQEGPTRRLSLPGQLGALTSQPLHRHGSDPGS

[39] = system: Acinetobacter baumannii; assay: Antibacterial activity against multidrug-resistant Acinetobacter baumannii BM-2023-D2-010 infected in ICR mouse assessed as inhibition of bacterial growth by measuring its effective dose at iv after 1 and 5 hour of post-infection measured after 7 days; format: functional; details: BM-2023-D2-010, 168 h, time 7 day

CC(C)(O/N=C(\C(=O)N[C@@H]1C(=O)N2C(C(=O)[O-])=C(C[N+]3(CCNC(=O)c4ccc(O)c(O)c4Cl)CCCC3)CS[C@H]12)c1csc(N)n1)C(=O)O [CEFIDEROCOL]
MIC [1]: 2 µg/mL (≈ 2.66 µM)
MIC [2]: 0.125 µg/mL (≈ 0.166 µM)
MIC [3]: 1 µg/mL (≈ 1.33 µM)
MIC [4]: 2 µg/mL (≈ 2.66 µM)
MIC [5]: 8 µg/mL (≈ 10.6 µM)
MIC [6]: 2 µg/mL (≈ 2.66 µM)
MIC [7]: 4 µg/mL (≈ 5.32 µM)
MIC [8]: 4 µg/mL (≈ 5.32 µM)
MIC [9]: 2 µg/mL (≈ 2.66 µM)
MIC [10]: 8 µg/mL (≈ 10.6 µM)
MIC [11]: 4 µg/mL (≈ 5.32 µM)
MIC [12]: 8 µg/mL (≈ 10.6 µM)
MIC [13]: 4 µg/mL (≈ 5.32 µM)
MIC [14]: 2 µg/mL (≈ 2.66 µM)
MIC [15]: 2 µg/mL (≈ 2.66 µM)
MIC [16]: 0.06 µg/mL (≈ 0.0798 µM)
MIC [17]: 1 µg/mL (≈ 1.33 µM)
MIC [18]: 8 µg/mL (≈ 10.6 µM)
MIC [19]: 0.5 µg/mL (≈ 0.665 µM)
MIC [20]: 1 µg/mL (≈ 1.33 µM)
MIC [21]: 1 µg/mL (≈ 1.33 µM)
MIC [22]: 1 µg/mL (≈ 1.33 µM)
MIC [23]: 2 µg/mL (≈ 2.66 µM)
MIC [24]: 2 µg/mL (≈ 2.66 µM)
MIC [25]: 1 µg/mL (≈ 1.33 µM)
MIC [26]: 2 µg/mL (≈ 2.66 µM)
MIC [27]: 1 µg/mL (≈ 1.33 µM)
MIC [28]: 8 µg/mL (≈ 10.6 µM)
MIC [29]: 0.5 µg/mL
MIC [30]: 1 µg/mL
MIC [31]: 8 µg/mL
MIC [32]: 0.5 µg/mL
MIC [33]: 0.06 µg/mL
MIC [34]: 2 µg/mL
MIC [35]: 0.12 µg/mL (≈ 0.16 µM)
MIC [36]: 0.25 µg/mL (≈ 0.332 µM)
fraction unbound at 35 min [37]: 0.801
IC50 [38]: 0.042 µM
ED50 [39]: 7 mg/kg
